Assay results from BindingDB's records for PubMed 37487305 (Zhengzhou University).
pIC50: −log10 of the molar value.

Biological target: Histone deacetylase 1 (Homo sapiens, UniProt Q13547)
Test: Inhibition of HDAC1 (unknown origin) by fluorescence based microplate reader assay

Sequence of Histone deacetylase 1 (Q13547 whole entry): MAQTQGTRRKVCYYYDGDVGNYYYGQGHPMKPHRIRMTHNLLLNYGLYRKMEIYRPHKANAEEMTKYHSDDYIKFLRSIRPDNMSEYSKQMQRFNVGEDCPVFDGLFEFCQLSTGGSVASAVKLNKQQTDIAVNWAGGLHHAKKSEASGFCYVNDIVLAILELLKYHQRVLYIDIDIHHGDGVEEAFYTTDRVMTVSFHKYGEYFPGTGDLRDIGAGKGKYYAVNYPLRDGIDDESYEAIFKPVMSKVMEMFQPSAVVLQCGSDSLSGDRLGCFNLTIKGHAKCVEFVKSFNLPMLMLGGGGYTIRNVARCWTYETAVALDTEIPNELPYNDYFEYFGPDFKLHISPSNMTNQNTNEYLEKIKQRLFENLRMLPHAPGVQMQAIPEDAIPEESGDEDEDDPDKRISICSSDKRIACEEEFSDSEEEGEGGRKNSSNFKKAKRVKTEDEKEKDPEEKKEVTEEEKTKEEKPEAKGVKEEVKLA

pIC50: 6.80
SMILES: CN1c2ccccc2C(=O)N2[C@H](C(=O)Nc3ccc(C(=O)Nc4ccccc4N)cc3)Cc3c([nH]c4ccccc34)[C@@H]12
